Columns and labels:
[1] = biological target: intracellular GCN2 (phosphorylation of the GCN2 substrate eIF2α) (Homo sapiens, UniProt Q9P2K8); experiment: GCN2 cellular inhibition assay (AlphaScreen SureFire P-eIF2α Ser51, borrelidin-treated U2OS cells); assay type: cell-based; details: compounds of Formula IV; biomarker assay, phosphorylated eIF2α Ser51 in borrelidin-treated U2OS cells
Summary of the method: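 First, U2OS cells are plated and left overnight at 37 °C. Next, compounds (from 40 μM final, 4-fold steps) and 10 μM borrelidin are added for 1 h, cells lysed, and phospho-Ser51 eIF2α detected by AlphaScreen bead sandwich. Inhibition is computed versus borrelidin-only wells.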

[2] = biological target: GCN2 kinase (Homo sapiens, UniProt Q9P2K8); experiment: GCN2 enzyme inhibition assay (Transcreener ADP2 fluorescence polarization); assay type: biochemical; details: Enzyme activity for compounds of Formula IV; Ki(app), 280 μM ATP, 25° C.
GCN2 kinase, sequence (Q9P2K8 whole entry): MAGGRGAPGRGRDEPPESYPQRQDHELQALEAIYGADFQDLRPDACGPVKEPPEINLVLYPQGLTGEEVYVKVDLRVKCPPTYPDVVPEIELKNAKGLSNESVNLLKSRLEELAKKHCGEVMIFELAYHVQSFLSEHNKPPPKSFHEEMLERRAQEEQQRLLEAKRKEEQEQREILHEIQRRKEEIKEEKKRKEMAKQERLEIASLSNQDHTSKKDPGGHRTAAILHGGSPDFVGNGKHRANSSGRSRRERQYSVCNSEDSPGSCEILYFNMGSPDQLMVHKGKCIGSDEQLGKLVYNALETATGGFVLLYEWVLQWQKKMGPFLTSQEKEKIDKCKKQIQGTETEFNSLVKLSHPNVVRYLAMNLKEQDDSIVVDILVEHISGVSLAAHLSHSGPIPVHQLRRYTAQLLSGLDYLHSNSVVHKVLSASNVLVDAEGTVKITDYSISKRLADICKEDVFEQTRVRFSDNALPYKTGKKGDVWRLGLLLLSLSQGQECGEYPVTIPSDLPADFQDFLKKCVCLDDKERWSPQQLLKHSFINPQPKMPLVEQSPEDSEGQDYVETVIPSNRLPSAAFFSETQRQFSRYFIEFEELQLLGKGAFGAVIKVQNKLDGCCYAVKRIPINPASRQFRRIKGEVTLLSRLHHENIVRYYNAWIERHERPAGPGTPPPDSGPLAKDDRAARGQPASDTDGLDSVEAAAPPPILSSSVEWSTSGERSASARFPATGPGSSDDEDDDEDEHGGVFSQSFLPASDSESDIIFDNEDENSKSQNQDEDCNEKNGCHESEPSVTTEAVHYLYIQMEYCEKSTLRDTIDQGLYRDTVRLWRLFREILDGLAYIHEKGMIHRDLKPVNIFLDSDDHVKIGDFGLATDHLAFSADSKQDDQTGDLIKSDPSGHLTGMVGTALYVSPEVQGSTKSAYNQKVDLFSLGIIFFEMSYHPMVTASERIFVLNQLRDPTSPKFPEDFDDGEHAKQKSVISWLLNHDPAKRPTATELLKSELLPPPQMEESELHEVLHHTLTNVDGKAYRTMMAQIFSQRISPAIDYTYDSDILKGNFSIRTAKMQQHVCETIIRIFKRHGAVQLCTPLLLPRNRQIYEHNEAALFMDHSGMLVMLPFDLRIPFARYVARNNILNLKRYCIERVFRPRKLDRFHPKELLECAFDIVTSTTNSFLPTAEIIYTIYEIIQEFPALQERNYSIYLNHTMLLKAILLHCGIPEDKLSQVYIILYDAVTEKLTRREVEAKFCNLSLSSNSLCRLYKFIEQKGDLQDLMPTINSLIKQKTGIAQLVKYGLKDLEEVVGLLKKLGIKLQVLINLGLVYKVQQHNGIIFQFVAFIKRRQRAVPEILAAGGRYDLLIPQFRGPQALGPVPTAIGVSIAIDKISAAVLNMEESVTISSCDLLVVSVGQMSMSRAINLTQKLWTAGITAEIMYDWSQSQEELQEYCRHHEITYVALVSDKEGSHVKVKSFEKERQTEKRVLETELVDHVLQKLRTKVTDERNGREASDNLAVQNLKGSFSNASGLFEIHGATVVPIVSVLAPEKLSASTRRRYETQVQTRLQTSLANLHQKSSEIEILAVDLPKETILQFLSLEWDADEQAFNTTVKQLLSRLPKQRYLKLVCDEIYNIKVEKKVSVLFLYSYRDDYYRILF
Summary of the method: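 Human GCN2 (4 nM) preincubated 10 min with compound (0–8 μM) and 200 μM (RS)7 peptide in Tris-HCl pH 7.5, NaCl, MgCl2, DTT. Reaction started with 280 μM ATP, run 1 h at 25 °C. ADP detected by Transcreener fluorescence polarization. IC50 and Ki(app) fitted by tight-binding algorithm.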

intracellular GCN2 (phosphorylation of the GCN2 substrate eIF2α), sequence (Q9P2K8 whole entry): as above

## CC1C(C(N)=O)CCCN1c1ccnc(-c2cnc3cnc(C(F)F)cn23)n1 (centres unmarked) [IV-109, 1-(2-(6-(Difluoromethyl)imidazo[1,2-a]pyrazin-3-yl)pyrimidin-4-yl)-2-methylpiperidine-3-carboxamide]
[1]
  IC50: 500 to 5000 nM
[2]
  Ki: 10 to 100 nM

## OCC12CC1CN(c1ccnc(-c3cnc4cnc(C(F)F)cn34)n1)C2 (centres unmarked) [IV-111, (3-(2-(6-(Difluoromethyl)imidazo[1,2-a]pyrazin-3-yl)pyrimidin-4-yl)-3-azabicyclo[3.1.0]hexan-1-yl)methanol]
[1]
  IC50: > 5000 nM
[2]
  Ki: 100 to 1000 nM

## Cc1cc(C2CCCN(c3ccnc(-c4cnc5cnc(C(F)F)cn45)n3)C2)n[nH]1 (centres unmarked) [IV-112, 6-(Difluoromethyl)-3-(4-(3-(5-methyl-1H-pyrazol-3-yl)piperidin-1-yl)pyrimidin-2-yl)imidazo[1,2-a]pyrazine]
[1]
  IC50: > 5000 nM
[2]
  Ki: 100 to 1000 nM

## Cn1nc(C2CCCN(c3ccnc(-c4cnc5cnc(C(F)F)cn45)n3)C2)cc1O (centres unmarked) [IV-113, 3-(1-(2-(6-(Difluoromethyl)imidazo[1,2-a]pyrazin-3-yl)pyrimidin-4-yl)piperidin-3-yl)-1-methyl-1H-pyrazol-5-ol]
[1]
  IC50: > 5000 nM
[2]
  Ki: 100 to 1000 nM

## NS(=O)(=O)CC1CCCN(c2ccnc(-c3cnc4cnc(C(F)F)cn34)n2)C1 (centres unmarked) [IV-114, (1-(2-(6-(Difluoromethyl)imidazo[1,2-a]pyrazin-3-yl)pyrimidin-4-yl)piperidin-3-yl)methanesulfonamide]
[1]
  IC50: > 5000 nM
[2]
  Ki: 100 to 1000 nM

## FC(F)c1cn2c(-c3nccc(N4CCc5ccccc5C4)n3)cnc2cn1 [IV-115, 2-(2-(6-(Difluoromethyl)imidazo[1,2-a]pyrazin-3-yl)pyrimidin-4-yl)-1,2,3,4-tetrahydroisoquinoline]
[1]
  IC50: > 5000 nM
[2]
  Ki: 100 to 1000 nM

## OC1CCC2CN(c3ccnc(-c4cnc5cnc(C(F)F)cn45)n3)CC2C1 (centres unmarked) [IV-116, 2-(2-(6-(Difluoromethyl)imidazo[1,2-a]pyrazin-3-yl)pyrimidin-4-yl)octahydro-1H-isoindol-5-ol]
[1]
  IC50: > 5000 nM
[2]
  Ki: 100 to 1000 nM

## NC(=O)C1COCCN(c2ccnc(-c3cnc4cnc(C(F)F)cn34)n2)C1 (centres unmarked) [IV-117, 4-(2-(6-(Difluoromethyl)imidazo[1,2-a]pyrazin-3-yl)pyrimidin-4-yl)-1,4-oxazepane-6-carboxamide]
[1]
  IC50: > 5000 nM
[2]
  Ki: 100 to 1000 nM

## NC1CCCN(c2ccnc(-c3cnc4cnc(C(F)F)cn34)n2)CC1 (centres unmarked) [IV-118, 1-(2-(6-(Difluoromethyl)imidazo[1,2-a]pyrazin-3-yl)pyrimidin-4-yl)azepan-4-amine]
[1]
  IC50: > 5000 nM
[2]
  Ki: 100 to 1000 nM

## CC1CN(c2ccnc(-c3cnc4cnc(C(F)F)cn34)n2)CC(C)O1 (centres unmarked) [IV-119, 4-(2-(6-(Difluoromethyl)imidazo[1,2-a]pyrazin-3-yl)pyrimidin-4-yl)-2,6-dimethylmorpholine]
[1]
  IC50: > 5000 nM
[2]
  Ki: 100 to 1000 nM

## OC1CCCN(c2ccnc(-c3cnc4cnc(C(F)F)cn34)n2)C1 (centres unmarked) [IV-120, 1-(2-(6-(Difluoromethyl)imidazo[1,2-a]pyrazin-3-yl)pyrimidin-4-yl)piperidin-3-ol]
[1]
  IC50: > 5000 nM
[2]
  Ki: 100 to 1000 nM

## OCC1CCCN(c2ccnc(-c3cnc4cnc(C(F)F)cn34)n2)C1 (centres unmarked) [IV-121, (1-(2-(6-(Difluoromethyl)imidazo[1,2-a]pyrazin-3-yl)pyrimidin-4-yl)piperidin-3-yl)methanol]
[1]
  IC50: > 5000 nM
[2]
  Ki: 100 to 1000 nM

## C[C@@H]1CCC[C@H](C)N1c1ccnc(-c2cnc3cnc(C(F)F)cn23)n1 [IV-122, 6-(Difluoromethyl)-3-(4-((2S,6R)-2,6-dimethylpiperidin-1-yl)pyrimidin-2-yl)imidazo[1,2-a]pyrazine]
[1]
  IC50: > 5000 nM
[2]
  Ki: 100 to 1000 nM

## CN1CCN(c2ccnc(-c3cnc4cnc(C(F)F)cn34)n2)CC12CCNCC2 [IV-123, 4-(2-(6-(Difluoromethyl)imidazo[1,2-a]pyrazin-3-yl)pyrimidin-4-yl)-1-methyl-1,4,9-triazaspiro[5.5]undecane]
[1]
  IC50: > 5000 nM
[2]
  Ki: 100 to 1000 nM

## CS(=O)(=O)NC1CCCN(c2ccnc(-c3cnc4cnc(C(F)F)cn34)n2)CC1 (centres unmarked) [IV-124]
[1]
  IC50: > 5000 nM
[2]
  Ki: 100 to 1000 nM

## CN([C@H]1CCN(c2ccnc(-c3cnc4cnc(C(F)F)cn34)n2)C1)S(C)(=O)=O [IV-125, (S)—N-(1-(2-(6-(Difluoromethyl)imidazo[1,2-a]pyrazin-3-yl)pyrimidin-4-yl)pyrrolidin-3-yl)-N-methylmethanesulfonamide]
[1]
  IC50: > 5000 nM
[2]
  Ki: 100 to 1000 nM

## CS(=O)(=O)N1C2CCC1CN(c1ccnc(-c3cnc4cnc(C(F)F)cn34)n1)C2 [IV-126, 6-(Difluoromethyl)-3-(4-(8-(methylsulfonyl)-3,8-diazabicyclo[3.2.1]octan-3-yl)pyrimidin-2-yl)imidazo[1,2-a]pyrazine]
[1]
  IC50: > 5000 nM
[2]
  Ki: 100 to 1000 nM

## NC(=O)C1COCCN(c2ccnc(-c3cnc4cnc(C(F)F)cn34)n2)C1 (centres unmarked) [IV-128, 4-(2-(6-(Difluoromethyl)imidazo[1,2-a]pyrazin-3-yl)pyrimidin-4-yl)-1,4-oxazepane-6-carboxamide]
[1]
  IC50: > 5000 nM
[2]
  Ki: 100 to 1000 nM

## C[C@@H]1CCCN(c2ccnc(-c3cnc4cnc(C(F)F)cn34)n2)C1 [IV-129, (R)-6-(Difluoromethyl)-3-(4-(3-methylpiperidin-1-yl)pyrimidin-2-yl)imidazo[1,2-a]pyrazine]
[1]
  IC50: > 5000 nM
[2]
  Ki: 100 to 1000 nM

## FC(F)c1cn2c(-c3nccc(N4CCCC5CCCC54)n3)cnc2cn1 (centres unmarked) [IV-130, 6-(Difluoromethyl)-3-(4-(octahydro-1H-cyclopenta[b]pyridin-1-yl)pyrimidin-2-yl)imidazo[1,2-a]pyrazine]
[1]
  IC50: > 5000 nM
[2]
  Ki: 100 to 1000 nM

## CC(C)(C)OC(=O)N1CCC2CCN(c3ccnc(-c4cnc5cnc(C(F)F)cn45)n3)CC21 (centres unmarked) [IV-132, tert-Butyl 6-(2-(6-(difluoromethyl)imidazo[1,2-a]pyrazin-3-yl)pyrimidin-4-yl)octahydro-1H-pyrrolo[2,3-c]pyridine-1-carboxylate]
[1]
  IC50: > 5000 nM
[2]
  Ki: 100 to 1000 nM

## CC1CCCN(c2ccnc(-c3cnc4cnc(C(F)F)cn34)n2)C1C (centres unmarked) [IV-134, 6-(Difluoromethyl)-3-(4-(2,3-dimethylpiperidin-1-yl)pyrimidin-2-yl)imidazo[1,2-a]pyrazine]
[1]
  IC50: > 5000 nM
[2]
  Ki: 100 to 1000 nM

## FC(F)c1cn2c(-c3nccc(N4CCCC5CC54)n3)cnc2cn1 (centres unmarked) [IV-135, 3-(4-(2-Azabicyclo[4.1.0]heptan-2-yl)pyrimidin-2-yl)-6-(difluoromethyl)imidazo[1,2-a]pyrazine]
[1]
  IC50: > 5000 nM
[2]
  Ki: 100 to 1000 nM

## OC[C@H]1CCCCN1c1ccnc(-c2cnc3cnc(C(F)F)cn23)n1 [IV-136, (R)-(1-(2-(6-(Difluoromethyl)imidazo[1,2-a]pyrazin-3-yl)pyrimidin-4-yl)piperidin-2-yl)methanol]
[1]
  IC50: > 5000 nM
[2]
  Ki: 100 to 1000 nM

## C[C@H]1CCCN(c2ccnc(-c3cnc4cnc(C(F)F)cn34)n2)C1 [IV-137, (S)-6-(Difluoromethyl)-3-(4-(3-methylpiperidin-1-yl)pyrimidin-2-yl)imidazo[1,2-a]pyrazine]
[1]
  IC50: > 5000 nM
[2]
  Ki: 100 to 1000 nM

## OC[C@@H]1CCCN(c2ccnc(-c3cnc4cnc(C(F)F)cn34)n2)C1 [IV-138, (R)-(1-(2-(6-(Difluoromethyl)imidazo[1,2-a]pyrazin-3-yl)pyrimidin-4-yl)piperidin-3-yl)methanol]
[1]
  IC50: > 5000 nM
[2]
  Ki: 100 to 1000 nM

## O=C(C1CCCN(c2ccnc(-c3cnc4cnc(C(F)F)cn34)n2)C1)N1CCNCC1 (centres unmarked) [IV-139, (1-(2-(6-(Difluoromethyl)imidazo[1,2-a]pyrazin-3-yl)pyrimidin-4-yl)piperidin-3-yl)(piperazin-1-yl)methanone]
[1]
  IC50: > 5000 nM
[2]
  Ki: 100 to 1000 nM

## FC(F)c1cn2c(-c3nccc(N4CCC5(CCNCC5)C4)n3)cnc2cn1 [IV-140, 2-(2-(6-(Difluoromethyl)imidazo[1,2-a]pyrazin-3-yl)pyrimidin-4-yl)-2,8-diazaspiro[4.5]decane]
[1]
  IC50: > 5000 nM
[2]
  Ki: 100 to 1000 nM

## CS(C)(=O)=NC1CCCN(c2ccnc(-c3cnc4cnc(C(F)F)cn34)n2)C1 (centres unmarked) [IV-141, ((1-(2-(6-(Difluoromethyl)imidazo[1,2-a]pyrazin-3-yl)pyrimidin-4-yl)piperidin-3-yl)imino)dimethyl-λ^6-sulfanone]
[1]
  IC50: > 5000 nM
[2]
  Ki: 100 to 1000 nM

## OC[C@H]1CCCN(c2ccnc(-c3cnc4cnc(C(F)F)cn34)n2)C1 [IV-142, (S)-(1-(2-(6-(Difluoromethyl)imidazo[1,2-a]pyrazin-3-yl)pyrimidin-4-yl)piperidin-3-yl)methanol]
[1]
  IC50: > 5000 nM
[2]
  Ki: 100 to 1000 nM

## NCC1CCCN(c2ccnc(-c3cnc4cnc(C(F)F)cn34)n2)C1 (centres unmarked) [IV-143, (1-(2-(6-(Difluoromethyl)imidazo[1,2-a]pyrazin-3-yl)pyrimidin-4-yl)piperidin-3-yl)methanamine]
[1]
  IC50: > 5000 nM
[2]
  Ki: 100 to 1000 nM

## CS(=O)(=O)N1CCC2CCN(c3ccnc(-c4cnc5cnc(C(F)F)cn45)n3)CC21 (centres unmarked) [IV-144, 6-(Difluoromethyl)-3-(4-(1-(methylsulfonyl)octahydro-6H-pyrrolo[2,3-a]pyridin-6-yl)pyrimidin-2-yl)imidazo[1,2-a]pyrazine]
[1]
  IC50: 500 to 5000 nM
[2]
  Ki: 100 to 1000 nM

## CS(=O)(=O)N1CCC2(CCN(c3ccnc(-c4cnc5cnc(C(F)F)cn45)n3)C2)CC1 [IV-145, 2-(2-(6-(Difluoromethyl)imidazo[1,2-a]pyrazin-3-yl)pyrimidin-4-yl)-8-(methylsulfonyl)-2,8-diazaspiro[4.5]decane]
[1]
  IC50: > 5000 nM
[2]
  Ki: 100 to 1000 nM

## CS(=O)(=O)NCc1cccc(-c2ccnc(-c3cnc4cnc(C(F)F)cn34)n2)c1 [IV-146, N-(3-(2-(6-(Difluoromethyl)imidazo[1,2-a]pyrazin-3-yl)pyrimidin-4-yl)benzyl)methanesulfonamide]
[1]
  IC50: > 5000 nM
[2]
  Ki: 100 to 1000 nM

Reference: patent US10988477B2 (Merck Patent GmbH, priority 2018, dated 2021)
